From paper PMC11903733 (Frontiers in Pharmacology, 2025)

Assays:
Experiment in all cases: SelectScreen kinase profiling
Format in all cases: biochemical
EPHA1 = EPHA1 (Homo sapiens, UniProt P21709)
Procedure: (§1) The kinase selectivity analysis of LTM-1 was performed utilizing the SelectScreen Kinase Profiling Service offered by Thermo Fisher Scientific. In a dose-response assay featuring a ten-point dilution series from 0.25 μM to 128 μM, the inhibitory effects of LTM-1 on substrate phosphorylation reactions catalyzed by a panel of kinases were assessed. Consequently, the half-maximal inhibitory concentrations (IC50 values) for each kinase were determined.

PTK2 = PTK2 (Homo sapiens, UniProt Q05397)
Procedure: as §1

ROS1 = ROS1 (Homo sapiens, UniProt P08922)
Procedure: as §1

LTK = LTK (Homo sapiens, UniProt P29376)
Procedure: as §1

ABL2 = ABL2 (Homo sapiens, UniProt P42684)
Procedure: as §1

ALK = ALK (Homo sapiens, UniProt Q9UM73)
Procedure: as §1

FGFR2 = FGFR2 (Homo sapiens, UniProt P21802)
Procedure: as §1

FGFR4 = FGFR4 (Homo sapiens, UniProt P22455)
Procedure: as §1

NTRK2 = NTRK2 (Homo sapiens, UniProt Q16620)
Procedure: as §1

KIT = KIT (Homo sapiens, UniProt P10721)
Procedure: as §1

RAF1 = RAF1 (Homo sapiens, UniProt P04049, Y340D/Y341D)
Procedure: as §1

PDGFRA = PDGFRA (Homo sapiens, UniProt P16234)
Procedure: as §1

FYN = FYN (Homo sapiens, UniProt P06241)
Procedure: as §1

MST1R = MST1R (Homo sapiens, UniProt Q04912)
Procedure: as §1

CDK8 = CDK8 (Homo sapiens, UniProt P49336)
Procedure: as §1

JAK1 = JAK1 (Homo sapiens, UniProt P23458)
Procedure: as §1

CDK3 = CDK3 (Homo sapiens, UniProt Q00526)
Procedure: as §1

FGFR3 = FGFR3 (Homo sapiens, UniProt P22607)
Procedure: as §1

FRK = FRK (Homo sapiens, UniProt P42685)
Procedure: as §1

LYN = LYN (Homo sapiens, UniProt P07948)
Procedure: as §1

JAK2 = JAK2 (Homo sapiens, UniProt O60674)
Procedure: as §1

EPHB3 = EPHB3 (Homo sapiens, UniProt P54753)
Procedure: as §1

ITK = ITK (Homo sapiens, UniProt Q08881)
Procedure: as §1

CDK19 = CDK19 (Homo sapiens, UniProt Q9BWU1)
Procedure: as §1

FGR = FGR (Homo sapiens, UniProt P09769)
Procedure: as §1

CDK12 = CDK12 (Homo sapiens, UniProt Q9NYV4)
Procedure: as §1

EPHB4 = EPHB4 (Homo sapiens, UniProt P54760)
Procedure: as §1

MUSK = MUSK (Homo sapiens, UniProt O15146)
Procedure: as §1

CDK2 = CDK2 (Homo sapiens, UniProt P24941)
Procedure: as §1

MERTK = MERTK (Homo sapiens, UniProt Q12866)
Procedure: as §1

ERBB4 = ERBB4 (Homo sapiens, UniProt Q15303)
Procedure: as §1

ERBB2 = ERBB2 (Homo sapiens, UniProt P04626)
Procedure: as §1

BMX = BMX (Homo sapiens, UniProt P51813)
Procedure: as §1

PDGFRB = PDGFRB (Homo sapiens, UniProt P09619)
Procedure: as §1

AXL = AXL (Homo sapiens, UniProt P30530)
Procedure: as §1

FGFR1 = FGFR1 (Homo sapiens, UniProt P11362)
Procedure: as §1

MET = MET (Homo sapiens, UniProt P08581)
Procedure: as §1

CSF1R = CSF1R (Homo sapiens, UniProt P07333)
Procedure: as §1

EPHB1 = EPHB1 (Homo sapiens, UniProt P54762)
Procedure: as §1

JAK3 = JAK3 (Homo sapiens, UniProt P52333)
Procedure: as §1

CDK5 = CDK5 (Homo sapiens, UniProt Q00535)
Procedure: as §1

Measured: IC50

Chain of CDK5 (Q00535 whole entry): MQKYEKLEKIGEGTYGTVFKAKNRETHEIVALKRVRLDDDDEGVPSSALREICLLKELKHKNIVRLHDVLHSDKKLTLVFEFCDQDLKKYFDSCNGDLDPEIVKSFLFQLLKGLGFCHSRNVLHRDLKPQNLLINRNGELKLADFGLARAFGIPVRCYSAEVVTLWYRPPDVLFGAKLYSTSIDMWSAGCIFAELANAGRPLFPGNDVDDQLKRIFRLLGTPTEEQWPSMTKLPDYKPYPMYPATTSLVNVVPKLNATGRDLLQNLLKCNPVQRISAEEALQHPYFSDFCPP
Chain of CDK5 (Q15078 99-307 partner limits assumed): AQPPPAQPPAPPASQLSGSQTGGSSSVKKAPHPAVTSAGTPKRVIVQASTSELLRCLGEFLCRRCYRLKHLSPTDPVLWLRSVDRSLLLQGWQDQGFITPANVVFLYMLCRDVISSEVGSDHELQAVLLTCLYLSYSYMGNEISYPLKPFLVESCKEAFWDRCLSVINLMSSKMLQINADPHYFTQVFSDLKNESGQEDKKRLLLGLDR
Chain of EPHB1 (P54762 18-984): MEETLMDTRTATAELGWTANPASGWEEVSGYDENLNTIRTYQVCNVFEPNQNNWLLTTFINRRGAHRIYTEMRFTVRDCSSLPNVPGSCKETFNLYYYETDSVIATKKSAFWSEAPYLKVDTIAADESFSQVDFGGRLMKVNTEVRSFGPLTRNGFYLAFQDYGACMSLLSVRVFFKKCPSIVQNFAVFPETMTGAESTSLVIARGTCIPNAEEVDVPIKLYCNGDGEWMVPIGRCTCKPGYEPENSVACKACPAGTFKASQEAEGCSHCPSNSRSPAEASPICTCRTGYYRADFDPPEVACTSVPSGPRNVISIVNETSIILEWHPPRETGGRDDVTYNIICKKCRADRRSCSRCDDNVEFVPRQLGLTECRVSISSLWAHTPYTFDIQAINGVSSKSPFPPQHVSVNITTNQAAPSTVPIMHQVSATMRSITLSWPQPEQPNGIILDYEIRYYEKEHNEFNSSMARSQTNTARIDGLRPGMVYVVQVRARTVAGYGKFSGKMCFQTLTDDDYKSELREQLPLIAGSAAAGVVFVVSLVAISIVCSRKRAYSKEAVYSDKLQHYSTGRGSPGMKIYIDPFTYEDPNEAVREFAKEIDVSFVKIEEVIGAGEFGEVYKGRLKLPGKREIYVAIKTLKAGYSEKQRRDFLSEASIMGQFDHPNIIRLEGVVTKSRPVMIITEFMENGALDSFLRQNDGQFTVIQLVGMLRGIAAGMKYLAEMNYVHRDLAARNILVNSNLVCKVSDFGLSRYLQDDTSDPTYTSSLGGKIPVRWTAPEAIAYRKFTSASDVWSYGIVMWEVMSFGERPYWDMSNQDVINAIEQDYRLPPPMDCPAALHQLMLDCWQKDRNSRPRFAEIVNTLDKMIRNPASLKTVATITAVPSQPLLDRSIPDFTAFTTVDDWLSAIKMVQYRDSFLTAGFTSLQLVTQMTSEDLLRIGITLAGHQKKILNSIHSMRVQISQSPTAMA
Chain of ABL2 (P42684 whole entry): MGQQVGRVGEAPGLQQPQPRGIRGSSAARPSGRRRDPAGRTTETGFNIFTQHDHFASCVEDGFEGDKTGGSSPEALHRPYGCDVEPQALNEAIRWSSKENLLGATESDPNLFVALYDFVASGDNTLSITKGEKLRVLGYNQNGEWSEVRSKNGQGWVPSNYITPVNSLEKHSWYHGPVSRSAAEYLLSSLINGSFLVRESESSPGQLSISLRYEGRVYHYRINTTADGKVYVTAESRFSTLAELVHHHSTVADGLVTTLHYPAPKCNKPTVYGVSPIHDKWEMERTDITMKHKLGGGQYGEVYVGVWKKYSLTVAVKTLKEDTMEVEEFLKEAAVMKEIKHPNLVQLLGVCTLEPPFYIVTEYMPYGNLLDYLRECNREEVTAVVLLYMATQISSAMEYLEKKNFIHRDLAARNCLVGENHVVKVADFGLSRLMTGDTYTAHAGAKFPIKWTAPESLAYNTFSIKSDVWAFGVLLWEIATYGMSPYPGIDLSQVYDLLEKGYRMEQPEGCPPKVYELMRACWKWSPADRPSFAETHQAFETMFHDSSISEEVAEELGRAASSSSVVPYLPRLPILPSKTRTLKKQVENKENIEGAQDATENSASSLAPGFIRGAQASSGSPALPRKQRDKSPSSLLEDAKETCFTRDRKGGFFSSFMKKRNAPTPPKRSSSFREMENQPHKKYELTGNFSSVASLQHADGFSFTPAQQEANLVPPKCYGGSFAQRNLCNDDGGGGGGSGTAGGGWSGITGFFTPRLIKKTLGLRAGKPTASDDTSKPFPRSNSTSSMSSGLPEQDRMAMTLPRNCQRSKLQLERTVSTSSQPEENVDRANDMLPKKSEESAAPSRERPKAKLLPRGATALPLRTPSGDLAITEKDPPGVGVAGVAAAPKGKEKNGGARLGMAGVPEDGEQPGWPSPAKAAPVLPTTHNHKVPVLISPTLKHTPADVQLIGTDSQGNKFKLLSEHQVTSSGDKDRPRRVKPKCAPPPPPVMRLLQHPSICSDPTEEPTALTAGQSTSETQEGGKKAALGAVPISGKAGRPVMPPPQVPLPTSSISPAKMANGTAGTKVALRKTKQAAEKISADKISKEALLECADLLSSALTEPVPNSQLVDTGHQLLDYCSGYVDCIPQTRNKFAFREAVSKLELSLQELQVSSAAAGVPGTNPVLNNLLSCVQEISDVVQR
Chain of PTK2 (Q05397 whole entry): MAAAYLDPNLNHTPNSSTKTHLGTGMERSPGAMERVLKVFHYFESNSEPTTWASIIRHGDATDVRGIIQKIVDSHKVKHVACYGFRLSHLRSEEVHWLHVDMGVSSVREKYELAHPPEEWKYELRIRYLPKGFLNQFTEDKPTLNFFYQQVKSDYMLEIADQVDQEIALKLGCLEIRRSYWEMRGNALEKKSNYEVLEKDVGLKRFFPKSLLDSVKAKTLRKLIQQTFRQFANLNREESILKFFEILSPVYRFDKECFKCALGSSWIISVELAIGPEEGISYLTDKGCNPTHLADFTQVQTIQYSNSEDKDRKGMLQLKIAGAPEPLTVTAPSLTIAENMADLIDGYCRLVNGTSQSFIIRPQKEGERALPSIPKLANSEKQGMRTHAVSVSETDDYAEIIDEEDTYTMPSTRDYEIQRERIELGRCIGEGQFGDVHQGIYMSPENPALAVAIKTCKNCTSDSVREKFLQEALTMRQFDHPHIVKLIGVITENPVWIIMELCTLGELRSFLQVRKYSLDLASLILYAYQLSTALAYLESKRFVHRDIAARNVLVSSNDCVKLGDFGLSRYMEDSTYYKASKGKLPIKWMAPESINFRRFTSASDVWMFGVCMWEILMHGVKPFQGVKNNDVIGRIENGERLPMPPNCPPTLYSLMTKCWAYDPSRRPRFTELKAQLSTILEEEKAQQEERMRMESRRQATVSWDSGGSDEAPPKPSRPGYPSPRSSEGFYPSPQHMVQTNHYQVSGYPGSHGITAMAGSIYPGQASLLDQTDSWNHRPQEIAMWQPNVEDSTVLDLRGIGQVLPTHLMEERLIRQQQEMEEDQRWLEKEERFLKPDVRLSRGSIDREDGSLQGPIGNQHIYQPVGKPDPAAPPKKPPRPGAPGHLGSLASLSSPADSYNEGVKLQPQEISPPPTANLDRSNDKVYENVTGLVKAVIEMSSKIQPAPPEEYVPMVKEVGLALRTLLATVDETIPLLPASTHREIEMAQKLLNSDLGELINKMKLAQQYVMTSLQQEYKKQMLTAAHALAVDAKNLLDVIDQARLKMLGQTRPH
Chain of AXL (P30530 26-894): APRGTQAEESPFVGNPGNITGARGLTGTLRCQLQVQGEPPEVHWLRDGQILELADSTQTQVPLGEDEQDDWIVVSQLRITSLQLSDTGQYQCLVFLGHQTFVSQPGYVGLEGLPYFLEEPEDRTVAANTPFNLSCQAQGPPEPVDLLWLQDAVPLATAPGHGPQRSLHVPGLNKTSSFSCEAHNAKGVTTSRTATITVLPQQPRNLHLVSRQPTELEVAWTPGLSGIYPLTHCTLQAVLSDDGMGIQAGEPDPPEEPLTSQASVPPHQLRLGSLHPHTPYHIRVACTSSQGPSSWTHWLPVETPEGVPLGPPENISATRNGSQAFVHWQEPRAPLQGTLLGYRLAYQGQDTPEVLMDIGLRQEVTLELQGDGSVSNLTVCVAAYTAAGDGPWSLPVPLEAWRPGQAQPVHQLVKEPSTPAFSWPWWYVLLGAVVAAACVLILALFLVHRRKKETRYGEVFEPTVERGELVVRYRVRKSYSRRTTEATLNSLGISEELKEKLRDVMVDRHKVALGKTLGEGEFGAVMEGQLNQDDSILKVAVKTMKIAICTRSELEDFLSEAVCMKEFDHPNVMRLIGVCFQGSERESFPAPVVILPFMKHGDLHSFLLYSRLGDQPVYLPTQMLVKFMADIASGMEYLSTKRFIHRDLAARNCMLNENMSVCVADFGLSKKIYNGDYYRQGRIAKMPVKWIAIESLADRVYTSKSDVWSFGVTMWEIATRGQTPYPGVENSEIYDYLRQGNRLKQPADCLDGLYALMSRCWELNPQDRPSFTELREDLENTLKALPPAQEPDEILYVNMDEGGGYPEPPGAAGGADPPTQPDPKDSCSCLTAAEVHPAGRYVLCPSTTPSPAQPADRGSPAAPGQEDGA
Chain of RAF1 (P04049 306-648 Y340D/Y341D limits assumed): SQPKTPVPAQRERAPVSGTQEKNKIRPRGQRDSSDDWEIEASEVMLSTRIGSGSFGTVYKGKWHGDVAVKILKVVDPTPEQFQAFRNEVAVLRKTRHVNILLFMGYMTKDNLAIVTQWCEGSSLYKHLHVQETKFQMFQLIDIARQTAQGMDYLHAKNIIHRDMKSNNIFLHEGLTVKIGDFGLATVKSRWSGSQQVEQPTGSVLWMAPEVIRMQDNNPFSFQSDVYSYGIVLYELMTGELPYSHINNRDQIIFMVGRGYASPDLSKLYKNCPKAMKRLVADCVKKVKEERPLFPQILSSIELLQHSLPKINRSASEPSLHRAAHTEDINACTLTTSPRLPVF

O=S(=O)(c1ccc(C(O)CO)c(C(F)(F)F)c1)N1CCc2cc(C3CC3NCC3CCNCC3)ccc21 (centres unmarked) [LTM-1]
> 10 µM: all assays above
